Assay results reported in patent US20150037269A1, “TOPICAL COMPOSITIONS FOR TREATMENT OF EXCESSIVE SWEATING AND METHODS OF USE THEREOF” (GlaxoSmithKline Intellectual Property Development Limited, priority 2013, published 2015).
Each block holds one compound with its values, some of them ahead of it.

How the values were obtained:
[1] = Irritation potential of topical solution; settings: solution comprising 2.2% w/w
[2] = cited from earlier work
[3] = MALDI imaging of distribution in skin layers; assay type: in vitro ADME, human; settings: twenty-four hours after single finite topical dose
Text: Matrix-assisted laser desorption/ionization (MALDI) has emerged as a powerful and diverse technology for analyzing the spatial distribution of endogenous and exogenous compounds directly from a tissue section. [See Seeley E H, Caprioli R M. MALDI imaging mass spectrometry of human tissue: method challenges and clinical perspectives. Trends Biotechnol. 29(3), 136-143 (2011); and Svatos A. Mass spectrometric imaging of small molecules. Trends Biotechnol. 28(8), 425-434 (2010)]. […] Anal Bioanal Chem. (2013); 405(4):1159-70]. MALDI imaging in human skin tissue sections: focus on various matrices and enzymes.

[4] = Clinical study: single radiolabelled topical dose to axilla or palm of healthy male subjects; assay type: in vivo, human; settings: for Cmax: male, human, plasma, topical, 3.05 mg
Protocol: Up to four cohorts were to be enrolled (Cohort A: unoccluded axilla; Cohort B: occluded axilla; Cohort C: unoccluded palm; Cohort D: occluded palm). Six subjects were to be dosed in each cohort and complete the study procedures.
On the day of dosing, subjects will receive the study drug applied to the axilla or palm. Each subject will only receive a single dose of study drug which will be applied to the test site and remain on the application site for 8 hours. Serial blood samples will be collected throughout treatment. An interim analysis using simulations will be conducted after each cohort to determine the likelihood of exceeding the safety cover for Cmax or AUC and the likelihood of obtaining quantifiable concentrations sufficient to determine the half-life in the subsequent cohorts.

[5] = Population pharmacokinetic model (IV plus dermal occluded axilla data); assay type: in vivo, human
Text: Of the drug that was available systemically, 9.70% (66.7%) was absorbed through a zero order process.

[6] = PopPK, IV and dermal occluded axilla

Structure (SMILES): OC(c1ccccc1)(c1ccccc1)C12CC[N+](CCOCc3ccccc3)(CC1)CC2 [umeclidinium bromide]
irritation potential [1]: low irritation potential

Cmax ([4]; occluded axilla (Cohort B), CV 122%): 7.92 pg/mL
Cmax ([4]; unoccluded axilla (Cohort A), CV 144%): 2.33 pg/mL
samples quantifiable up to ([4]; occluded axilla (Cohort B), post dose): 16 to 72 h
mean percent dose recovered from the skin surface ([4]; occluded axilla (Cohort B), range 69.2%-81.7%): 75.4%
median time to maximum concentration ([4]; occluded axilla (Cohort B), range 2 h-24 h): 13 h
plasma concentrations ([4]; occluded palm (Cohort D)): no quantifiable plasma concentrations
mean percent dose recovered from the skin surface ([4]; occluded palm (Cohort D), range 45.6%-59.9%): 52.5%
mean percent dose recovered from the skin surface ([4]; unoccluded axilla (Cohort A), end of 8 hour application, range 77.7-84.1%): 80.6%
quantifiable plasma concentrations up to ([4]; unoccluded axilla (Cohort A), one subject, post-dose): up to 72 hours
median time to maximum plasma concentration ([4]; unoccluded axilla (Cohort A), range 12 h-30 h): 13 h
CL2 Intercompartmental Clearance, Mean (RSE %) [5, 6]: 39376 (26.0%) mL/h
CL Elimination clearance, Mean (RSE %) [5, 6]: 45241 (23.6%) mL/h
F1 Fraction of the bioavailable drug absorbed through a zero order process, Mean (RSE %) [5, 6]: 0.097 (66.7%)
Ka First order absorption rate constant, Mean (RSE %) [5, 6]: 0.094 (54.1%)
Tlag Lag time for the first order absorption process, Mean (RSE %) [5, 6]: 8.61 (15.3%) hr
V1 Volume of central compartment, Mean (RSE %) [5, 6]: 7726 (17.6%) mL
V2 Volume of peripheral compartment, Mean (RSE %) [5, 6]: 261058 (57.3%) mL
F Absolute plasma bioavailability following administration to occluded axilla, Mean (RSE %) ([5]; PopPK, fraction): 0.0019 (55.3%)
bioavailability ([5]; human, plasma, topical, 3.05 mg, occluded axilla, RSE 55.3%, read-out: estimated absolute plasma bioavailability): 0.19%
share of systemically available drug absorbed through a zero order process ([5]; occluded axilla, RSE 66.7%): 9.70%
Structure (SMILES): OC(c1ccccc1)(c1ccccc1)C12CC[N+](CCOCc3ccccc3)(CC1)CC2 [umeclidinium, 4-[hydroxy(diphenyl)methyl]-1-{2-[(phenylmethyl)oxy]ethyl}-1-azoniabicyclo[2.2.2]octane]
tolerability in thorough QT study ([2]; 0.5 mg inhaled once daily for 10 days): well tolerated
tolerability in clinical development program ([2]; oral, intravenous and oral inhalation routes): well tolerated
qualitative distribution in skin layers [3]: penetrated to the deeper sections of the dermis and accumulated in the area where the sweat glands are present
